Source: patent US5670506A, “Halogen, isothiocyanate or azide substituted xanthines” (Cell Therapeutics, Inc., priority 1993, dated 1997)

How the values were obtained:
Assay type in all cases: cell-based
human lymphocytes [1] = experiment: inhibition of blast formation from human lymphocytes stimulated by anti-CD3 antibody; conditions: Lymphocyte, FIG. 10, read-out: IC50, blastogenesis stimulated by anti-CD3
Experimental: (§1) This is a human in vitro assay for immunosuppressive activity of the inventive compounds.
(§2) A third assay measures an ability of an inventive compound to inhibit IL-2-induced proliferation of murine thymocytes. Thymus glands are obtained from 4-6 week old mice and plated as a single cell suspension into flat bottomed wells in RPMI 1640 medium supplemented with 10% fetal calf serum. The inventive compounds are added to appropriate wells and the cells are incubated for 1-2 hrs. Concanavilin A (ConA, 0.25 μg/ml) and IL-1 (20 ng/ml) are added and the plates are incubated for 4 days. Cell proliferation is determined as above. There are also variations for this assay that follow the same basic stimulation and measure inhibition of proliferation format. For example, splenocytes can be used instead of thymocytes to measure more of a B cell response than a T cell response (e.g., thymocytes) and stimulated by an anti-mu antibody (40 μg/ml), IL-4 or PMA (2.5 nM). Similarly, human lymphocytes can be used from normal human volunteers and stimulated with human IL-2 (100 U/ml, Genzyme) and/or anti-CD3 antibody (2.5 μg/ml, Boehinger Mannheim).
(§3) This example illustrates an experiment showing the effects of CT1525, CT1529 and CT1595 (see Table 1 above for chemical names) on inhibition of blast formation from human lymphocytes stimulated by IL-2 or an anti-CD3 antibody (FIG. 10). […]

human lymphocytes [2] = experiment: inhibition of blast formation from human lymphocytes stimulated by IL-2; conditions: Lymphocyte, FIG. 10, read-out: IC50, blastogenesis stimulated by IL-2
Experimental: as §1, §2, §3

[3] = test system: Ras-transformed 3T3 cells (IL-1-induced signal transduction via the Type I IL-1 receptor); experiment: DAG and PA generated after stimulation of Ras-transformed 3T3 cells with IL-1β; conditions: FIGS. 11 and 12, IL-1β stimulation
Text: FIGS. 11 and 12 show the effects of CT1595 on the amount of DAG (diacylglycerol) (FIG. 11) and PA (Phosphatidic acid) (FIG. 12) generated at different times after stimulation of Ras-transformed 3T3 cells with IL-1β. CT1595 is a potent drug to inhibit enzyme activity that generates PA and then DAG by inhibiting IL-1-induced signal transduction, through this second messenger pathway, via the Type I IL-1 receptor. The inhibiting activity was not in a dose-response manner, indication that the IC50 concentration for inhibiting cellular second messenger signaling is probably below 500 nM.
One in vitro assay measures inhibition of the relevant enzymes lysophosphatidic acid acyltransferase (LPAAT) and phosphatidic acid phosphoryl hydrolase (PAPH). […] It is important to note that the assay method permits discrimination between various forms of PA and DAG so that those relevant to the pathway affected by the (R) or (S) compounds of the invention can be measured directly. […] Thus, the relevant unsaturated (non-arachidonic) PA and DAG subspecies may be detected. […]

**Q.** How did the IC50 (human lymphocytes [1]) turn out when Cn1cnc2c1c(=O)n(CCCCC(=O)CCl)c(=O)n2C [CT1595, 1-(6-chloro-5-oxohexyl)-3,7-dimethylxanthine] was run?
**A.** Its IC50 is less than 5 µM.

**Q.** What about the IC50 (human lymphocytes [2]) of the same compound?
**A.** Its IC50 is less than 5 µM.

**Q.** And the “inhibition of DAG and PA generation” value ([3]; in words)?
**A.** Its value is “the overall signal is being significantly inhibited”.

**Q.** What about the IC50 ([3]; Mus musculus, NIH3T3, "probably" below, read-out: IC50 for inhibiting cellular second messenger signaling) of the same compound?
**A.** Its IC50 is less than 0.5 µM.
